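Interpolation was linear, between the two tested concentrations surrounding the appropriate level; five concentrations were tested over 48 hours in 96-well plates. GI50: concentration for 50% inhibition of growth. At the TGI there is no net growth.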
Legend:
Test in all cases: NCI anticancer screen, dose series, 48 h
U251 CNS = tested on: U251 CNS
A549 NSCLC = tested on: A549 NSCLC
IGROV1 ovarian = tested on: IGROV1 ovarian
SF-268 CNS = tested on: SF-268 CNS
CCRF-CEM leukemia = tested on: CCRF-CEM leukemia
SK-MEL-28 melanoma = tested on: SK-MEL-28 melanoma
EKVX NSCLC = tested on: EKVX NSCLC
OVCAR-8 ovarian = tested on: OVCAR-8 ovarian
M14 melanoma = tested on: M14 melanoma
NCI/ADR-RES ovarian = tested on: NCI/ADR-RES ovarian

| SMILES | TGI (U251 CNS) | TGI (A549 NSCLC) | TGI (IGROV1 ovarian) | TGI (SF-268 CNS) | TGI (CCRF-CEM leukemia) | TGI (SK-MEL-28 melanoma) | TGI (EKVX NSCLC) | TGI (OVCAR-8 ovarian) | TGI (M14 melanoma) | GI50 (U251 CNS) | GI50 (A549 NSCLC) | GI50 (SF-268 CNS) | GI50 (NCI/ADR-RES ovarian) | TGI (NCI/ADR-RES ovarian) | GI50 (SK-MEL-28 melanoma) | GI50 (EKVX NSCLC) | GI50 (OVCAR-8 ovarian) | GI50 (M14 melanoma) | GI50 (CCRF-CEM leukemia) |
| --- | --- | --- | --- | --- | --- | --- | --- | --- | --- | --- | --- | --- | --- | --- | --- | --- | --- | --- | --- |
| Nc1ccccc1/C(O)=C1/CCOC1=O | > 100 µM | > 100 µM | > 100 µM | > 100 µM | > 100 µM | > 100 µM | > 100 µM | > 100 µM | > 100 µM | – | – | – | – | – | – | – | – | – | – |
| CN(C)CCC1(C2=CCCC2)CC/C(=C\c2ccc(Cl)cc2)C1=O (centres undefined) | 21.8 µM | 26.9 µM | 21 µM | 26.1 µM | > 22.7 µM | 7.4 µM | 18.8 µM | 25.3 µM | 3.84 µM | – | – | – | – | – | – | – | – | – | – |
| CCCC1=C(CC)C(C(=O)Nc2c(C)cccc2C)=NC(S)N1 (centres undefined) | > 100 µM | > 100 µM | > 100 µM | > 100 µM | > 100 µM | > 100 µM | > 100 µM | > 100 µM | > 100 µM | – | – | – | – | – | – | – | – | – | – |
| COC(=O)C12CC3CC(CC(C(=O)O)(C3)C1)C2 | > 100 µM | > 100 µM | > 100 µM | > 100 µM | > 100 µM | > 100 µM | > 100 µM | > 100 µM | > 100 µM | – | – | – | – | – | – | – | – | – | – |
| COC(=O)C(Cc1nc2ccccc2[nH]c1=O)C(NO)C(=O)Nc1c(Cl)cc([N+](=O)[O-])cc1Cl (centres undefined) | 99 µM | > 100 µM | > 100 µM | > 100 µM | 65.3 µM | > 100 µM | > 100 µM | > 100 µM | > 100 µM | – | – | – | – | – | – | – | – | – | – |
| CCOC(=O)C1SC(=Nc2ccc(C)c(C)c2)N=C1C (centres undefined) | > 100 µM | > 100 µM | > 100 µM | > 100 µM | > 100 µM | > 100 µM | > 100 µM | > 100 µM | > 100 µM | – | – | – | – | – | – | – | – | – | – |
| O=C(O)CNS(=O)(=O)c1ccc(NC(=O)c2ccc([N+](=O)[O-])cc2)cc1 | > 100 µM | > 100 µM | > 100 µM | > 100 µM | > 100 µM | > 100 µM | > 100 µM | > 100 µM | > 100 µM | – | – | – | – | – | – | – | – | – | – |
| CCCN(CCC)C(=O)c1c([N+](=O)[O-])cc(C(F)(F)F)cc1[N+](=O)[O-] | > 100 µM | > 100 µM | > 100 µM | > 100 µM | > 100 µM | > 100 µM | > 100 µM | > 100 µM | > 100 µM | – | – | – | – | – | – | – | – | – | – |
| CC1=[N+]([O-])c2ccccc2C(=O)C1=O | > 100 µM | > 100 µM | > 100 µM | > 100 µM | 74.2 µM | > 100 µM | > 100 µM | > 100 µM | > 100 µM | – | – | – | – | – | – | – | – | – | – |
| S=c1ssc(N2CCOCC2)c1Cl | 28.3 µM | > 100 µM | – | 71 µM | – | 57.9 µM | > 100 µM | > 100 µM | > 100 µM | 15 µM | > 100 µM | 23.3 µM | 43.9 µM | > 100 µM | 38.2 µM | 58 µM | > 100 µM | > 100 µM | – |
| O=C(N/N=C/c1cc(Br)ccc1O)N/N=C/c1cc(Br)ccc1O | > 100 µM | > 100 µM | – | > 100 µM | > 100 µM | > 100 µM | > 100 µM | 21.1 µM | – | – | – | – | – | – | – | – | – | – | – |
| COC(=O)C(CC(=O)Nc1ccc(C)cc1)C(=O)C(=O)Nc1c(C(C)C)cccc1C(C)C (centres undefined) | > 100 µM | > 100 µM | > 100 µM | > 100 µM | > 100 µM | > 100 µM | > 100 µM | > 100 µM | > 100 µM | – | – | – | – | – | – | – | – | – | – |
| COc1cc(/C=C/c2ccc(OC)c(O)c2)cc(OC)c1 | 15 µM | 33.3 µM | 86.4 µM | 80.5 µM | 15.2 µM | 24.5 µM | 90 µM | 36.1 µM | 12.8 µM | – | – | – | – | – | – | – | – | – | – |
| c1cnn(CN(Cn2cccn2)Cn2cccn2)c1 | > 100 µM | > 100 µM | – | > 100 µM | > 100 µM | > 100 µM | > 100 µM | > 100 µM | > 100 µM | – | – | – | – | – | – | – | – | – | – |
| Cc1ccc(N=C/C=C(\Nc2ccc(C)cc2)c2ccc(Cl)cc2)cc1 | 50.1 µM | 61.1 µM | – | 40.2 µM | 33.5 µM | 27.1 µM | 36.2 µM | 53.6 µM | 22.5 µM | 7.39 µM | 10.5 µM | 13.4 µM | 5.1 µM | 22.1 µM | 4.99 µM | 14 µM | 14.6 µM | 4.96 µM | 1.95 µM |
| Cn1cc(C2(C)CC(C)(C)c3c2n(C)c2ccccc32)c2ccccc21 (centres undefined) | > 100 µM | > 100 µM | > 100 µM | > 100 µM | > 100 µM | > 100 µM | > 100 µM | > 100 µM | > 100 µM | – | – | – | – | – | – | – | – | – | – |
| O=C1C2C3C=C4c5ccccc5N(c5ccccc5)C4(C2C(=O)N1c1ccc([N+](=O)[O-])cc1)[C@H]1C(=O)N(c2ccc([N+](=O)[O-])cc2)C(=O)[C@@H]31 (some centres undefined) | > 100 µM | > 100 µM | > 100 µM | > 100 µM | > 100 µM | > 100 µM | > 100 µM | > 100 µM | > 100 µM | – | – | – | – | – | – | – | – | – | – |
| CNC(=S)/N=C(\N)N(C)C | > 100 µM | > 100 µM | > 100 µM | > 100 µM | – | > 100 µM | > 100 µM | > 100 µM | > 100 µM | – | – | – | – | – | – | – | – | – | – |
| Clc1cc(Cl)c2ns[s+]c2c1Cl | > 100 µM | > 100 µM | > 100 µM | > 100 µM | > 100 µM | > 100 µM | > 100 µM | > 100 µM | > 100 µM | – | – | – | – | – | – | – | – | – | – |
| CCc1nc2cc(F)c(/C=C/C(=O)NO)cc2c(=O)n1CCc1ccccc1 | 0.891 µM | 2.67 µM | – | 10.1 µM | > 100 µM | 11.5 µM | 15.7 µM | 2.24 µM | 4.78 µM | 0.277 µM | 0.335 µM | 0.355 µM | 0.284 µM | 0.982 µM | 0.381 µM | 0.387 µM | 0.287 µM | 0.355 µM | 0.4 µM |
| O=C(c1cccc2ccccc12)N1CCC(C2CCN(C(=O)c3cccc4ccccc34)CC2)CC1 | > 100 µM | > 100 µM | > 100 µM | > 100 µM | > 100 µM | > 100 µM | > 100 µM | > 100 µM | > 100 µM | – | – | – | – | – | – | – | – | – | – |
| COc1ccc(CN2CC(C)(C)C2=O)c(OC)c1 | > 100 µM | > 100 µM | > 100 µM | > 100 µM | > 100 µM | > 100 µM | > 100 µM | > 100 µM | > 100 µM | – | – | – | – | – | – | – | – | – | – |
